Usually IC50 stands for the midpoint of a concentration-inhibition curve. Low values mean greater potency, high ones weaker potency. Usually Cmax stands for the peak of the concentration-time curve. What is called ED50 is the dose at which the effect has come halfway, by size or by number of responders.

Series [1] has as its target T1, Prostaglandin G/H synthase 2 (Homo sapiens, UniProt P35354).
T1 sequence (P35354 whole entry): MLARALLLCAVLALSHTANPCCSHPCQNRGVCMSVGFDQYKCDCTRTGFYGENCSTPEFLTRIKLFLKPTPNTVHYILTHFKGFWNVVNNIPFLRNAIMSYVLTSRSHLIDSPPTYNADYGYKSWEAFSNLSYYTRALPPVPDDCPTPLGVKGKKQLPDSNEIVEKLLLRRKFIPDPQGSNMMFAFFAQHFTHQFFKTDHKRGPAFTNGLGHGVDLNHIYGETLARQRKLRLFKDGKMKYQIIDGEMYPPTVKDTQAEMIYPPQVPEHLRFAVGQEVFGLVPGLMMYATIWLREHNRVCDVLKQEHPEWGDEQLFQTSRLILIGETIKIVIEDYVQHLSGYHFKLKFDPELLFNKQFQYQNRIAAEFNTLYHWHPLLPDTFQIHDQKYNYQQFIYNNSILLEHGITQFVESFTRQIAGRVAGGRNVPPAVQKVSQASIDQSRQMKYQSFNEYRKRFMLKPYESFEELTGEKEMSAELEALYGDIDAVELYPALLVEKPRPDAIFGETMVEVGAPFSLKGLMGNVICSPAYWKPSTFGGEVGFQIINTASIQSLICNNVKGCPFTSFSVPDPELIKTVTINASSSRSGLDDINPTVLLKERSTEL
It is filed as cell-based, CHO.

Series [2] has as its target T2, Prostaglandin G/H synthase 1 (Homo sapiens, UniProt P23219).
Description: In vitro inhibition of the production of PGE-2 in arachidonic acid stimulated chinese hamster ovary (CHO) cells transfected with human cyclooxygenase-1
Series [3] can be described thus: Maximum concentration in rats at 1 hr was determined when dosed at 20 mg/Kg perorally. On the set-up: dose 20 mg/Kg, route oral. It is filed as ADME, organism-based. The note with it: rat, in vivo, po.
The target of series [4] is T1, Prostaglandin G/H synthase 2. Briefly: (§1) In vivo ability to inhibit cyclooxygenase-2 enzyme in human whole blood was determined. It is filed as organism-based.
Series [5] concerns the target T2, Prostaglandin G/H synthase 1. Briefly: In vivo ability to inhibit cyclooxygenase-1 enzyme in human whole blood was determined. The class given is organism-based.
The test system of series [6] is Rattus norvegicus. The experiment in a line: GI tolerance when rats were dosed at 100 mg/kg for 10 days in GI permeability assay; High level of GI tolerance. The arrangement: dose 100 mg/kg. It is filed as functional, organism-based.
Series [7] has as its system Rattus norvegicus. Briefly: Effective dose to inhibit carrageenan induced rat paw edema assay was determined. The class given is functional.
In series [8] the target is Prostaglandin G/H synthase 2 (Homo sapiens, UniProt P35354). The description is as §1. The class given is organism-based. This is another data set of the same source.
The species named for series [9] is Rattus norvegicus. Briefly: animal or person. Conditions: read-out: Inhibition.
Description: Percentage inhibition against carrageenan induced rat paw edema assay was determined at a dose of 10 mg/Kg

T2 sequence (P23219 whole entry): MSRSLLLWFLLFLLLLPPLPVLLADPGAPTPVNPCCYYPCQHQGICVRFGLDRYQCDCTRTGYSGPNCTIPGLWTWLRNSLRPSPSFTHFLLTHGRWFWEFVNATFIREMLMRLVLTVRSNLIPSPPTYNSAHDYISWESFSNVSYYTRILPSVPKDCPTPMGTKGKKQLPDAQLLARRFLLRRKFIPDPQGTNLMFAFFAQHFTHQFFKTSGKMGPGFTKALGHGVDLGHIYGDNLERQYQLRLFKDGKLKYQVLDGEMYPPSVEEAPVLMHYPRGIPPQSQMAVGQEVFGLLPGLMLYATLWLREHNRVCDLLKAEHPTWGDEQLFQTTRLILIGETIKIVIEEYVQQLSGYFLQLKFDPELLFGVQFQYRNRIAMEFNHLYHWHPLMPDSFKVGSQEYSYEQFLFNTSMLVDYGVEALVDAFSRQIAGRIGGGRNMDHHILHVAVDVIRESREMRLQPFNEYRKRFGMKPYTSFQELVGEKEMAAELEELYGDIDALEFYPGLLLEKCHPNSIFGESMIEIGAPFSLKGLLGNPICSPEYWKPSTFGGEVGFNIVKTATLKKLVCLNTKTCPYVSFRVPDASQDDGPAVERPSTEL

`Cc1sc2nc(-c3ccc(S(C)(=O)=O)cc3)c(-c3ccccc3)n2c1C`: the IC50 in [1] is above 5 µM; in [2], above 50 µM.
For the molecule `Cc1cn2c(-c3ccccc3)c(-c3ccc(S(C)(=O)=O)cc3)nc2s1`, the IC50 in series [1] was 0.14 µM; in series [2] it was above 50 µM.
As to `CS(=O)(=O)c1ccc(-c2c(-c3ccccc3)nc3sccn23)cc1`, the Cmax in series [3] turned out to be 1000 nM. Moreover, the IC50 is 0.9 µM in series [4], above 30 µM in series [5], 0.016 µM in [1] and above 50 µM in series [2]. The GI tolerance entry in series [6] was “High level of GI tolerance”. Besides, the 50% effective dose (ED50) in series [7] turned out to be 2 mg/kg.
In the case of `CS(=O)(=O)c1ccc(-c2c(-c3ccc(Cl)cc3)nc3sc(Cl)cn23)cc1`, the concentration for half-maximal inhibition (IC50) in [1] is 0.016 µM; in series [2] it was above 50 µM.
Turning to `CS(=O)(=O)c1ccc(-c2c(-c3ccc(F)cc3)nc3sccn23)cc1`, the concentration for half-maximal inhibition (IC50) in [8] is 25 µM; in [4], 0.4 µM; in series [1] it was 0.014 µM; in series [2], above 50 µM. In series [7], this molecule returned a median effective dose (ED50) of 5 mg/kg.
Regarding `CS(=O)(=O)c1ccc(-c2cc(Br)sc2-c2ccc(F)cc2)cc1` [DUP-697], the inhibition in vivo at 10 mg/kg in [9] was found to be 57%.
With `CS(=O)(=O)c1ccc(-c2c(-c3ccc(F)c(F)c3)nc3sccn23)cc1`, the half-maximal inhibitory concentration (IC50) is 2.2 µM in [4], 0.012 µM in series [1] and above 50 µM in series [2].
Consider `CSc1ccc(-c2nc3sccn3c2-c2ccccc2)cc1`, for which the IC50 stood at 5 µM in [1] and 0.078 µM in [2].
Take `CS(=O)(=O)c1ccc(-c2c(-c3ccccc3)nc3scc(CC(=O)O)n23)cc1`: the concentration for half-maximal inhibition (IC50) in [1] was above 5 µM.
For the molecule `Cc1csc2nc(-c3ccc(S(C)(=O)=O)cc3)c(-c3ccccc3)n12`, the IC50 in series [1] was 1 µM; in series [2] it was above 50 µM.
`CS(=O)(=O)c1ccc(-c2c(-c3ccccc3)nc3sc4ccccc4n23)cc1`: the IC50 in series [1] was above 5 µM; in [2], above 50 µM.
As to `Cc1cn2c(-c3ccc(S(C)(=O)=O)cc3)c(-c3ccccc3)nc2s1`, the values for the concentration for half-maximal inhibition (IC50) in [4], in series [1] and in series [2] were 17.5 µM, 0.012 µM and above 50 µM, respectively.
Regarding `Cc1csc2nc(-c3ccccc3)c(-c3ccc(S(C)(=O)=O)cc3)n12`, the 50% inhibitory concentration (IC50) in series [1] is 3 µM; in series [2], above 50 µM.
`CCOC(=O)Cc1csc2nc(-c3ccccc3)c(-c3ccc(S(C)(=O)=O)cc3)n12` gave an IC50 in series [1] of 0.9 µM.
In the case of `Cc1sc2nc(-c3ccccc3)c(-c3ccc(S(C)(=O)=O)cc3)n2c1C`, the half-maximal inhibitory concentration (IC50) in series [1] was 5 µM; in series [2], above 50 µM.
Turning to `CS(=O)(=O)c1ccc(-c2c(-c3ccc(Cl)cc3)nc3sc(Cl)c(Cl)n23)cc1`, the IC50 in series [1] is 3.6 µM; in series [2], above 50 µM.
As to `CSc1ccc(-c2c(-c3ccccc3)nc3sccn23)cc1`, the IC50 worked out at 0.42 µM in [1] and 0.32 µM in series [2].
For `CS(=O)(=O)c1ccc(-c2nc3sc4ccccc4n3c2-c2ccccc2)cc1` the same measures were above 5 µM and above 50 µM.
As for `CS(=O)(=O)c1ccc(-c2nc3sccn3c2-c2ccccc2)cc1`, the figures for the half-inhibitory concentration (IC50) in series [1] and in series [2] were 3.21 µM and above 50 µM, respectively.

These data come from ChEMBL document CHEMBL1129863, “Synthesis and biological evaluation of 5,6-diarylimidazo[2.1-b]thiazole as selective COX-2 inhibitors” (Bioorg Med Chem Lett, 1997).
